Common to all, as to test: SelectScreen Z-LYTE kinase activity assay (SI Table 6)
What all share (type): biochemical

Test [1] has as its target protein kinases of the Z-LYTE panel (Homo sapiens, UniProt P08581). The procedure:
(§1) 133 protein kinases and 7 lipid kinases were counterscreened, with 1938 used at 1 μM, using the Adapta, Lantha and Z-LYTE assays (SelectScreen Kinase Profiling Service; Thermofisher – experimental details of these assays can be found here: https://www.thermofisher.com/uk/en/home/industrial/pharma-biopharma/drug-discovery-development/target-and-lead-identification-and-validation/kinasebiology/kinase-activity-assays.html. The tree represention in KinMap[59] generated courtesy of Cell Signaling Technology, Inc. (www.cellsignal.com). mTORC1 (mTOR/RAPTOR/LST8) protein complex and ATM kinase and substrates were produced as previously described[57],[60]. Screening of 1938 was conducted using SuperSep Phos-Tag 50 μmol/l 100 x 100 x 6.6 mm 17-well (192-18001/199-18011) gels. For ATM assays, 100 nM ATM was incubated for 30 min at 30°C with 5 μM GST-p53 and 1 mM ATP, in the absence or presence of 200 μM 1938 in ATM Kinase Buffer (50 mM HEPES pH 7.5, 100 mM NaCl, 10% glycerol, 2 mM […], 5 mM MgCl2). As a positive control for ATM activation, the same reaction was carried out with 100 nM ATM/5 μM GST-p53/1 mM ATP in the presence of 100 nM Mre11-Rad50-Nbs1 (MRN) complex, a known activator of ATM[61]. For mTORC1 assays, 50 nM mTORC1 complex (mTOR/LST8/RAPTOR) was incubated for 3 h at 30°C with 15 μM 4E-BP1, 10 mM MgCl2 and 250 μM ATP, in the absence or presence of 200 μM 1938. As a ‘positive’ control, a higher concentration (150 nM) of mTORC1 complex (mTOR/LST8/RAPTOR) was incubated for 3 h at 30°C with 15 μM 4E-BP1, 10 mM MgCl2 and 250 μM ATP. Kinase reactions were quenched by addition of SDS-PAGE Loading Buffer (as per manufacturer’s instructions) and freezing at -20°C before being run on the Phos-tag gels at 150 V for 90 min. Gels were then stained using InstantBlue™ Coomassie, and quantified using BioRad Image Lab Software. Kinase assays were carried out in triplicate.

Test [2] addresses T1, protein kinases of the Z-LYTE panel (Homo sapiens, UniProt P54760).
T1 sequence (P54760 16-987): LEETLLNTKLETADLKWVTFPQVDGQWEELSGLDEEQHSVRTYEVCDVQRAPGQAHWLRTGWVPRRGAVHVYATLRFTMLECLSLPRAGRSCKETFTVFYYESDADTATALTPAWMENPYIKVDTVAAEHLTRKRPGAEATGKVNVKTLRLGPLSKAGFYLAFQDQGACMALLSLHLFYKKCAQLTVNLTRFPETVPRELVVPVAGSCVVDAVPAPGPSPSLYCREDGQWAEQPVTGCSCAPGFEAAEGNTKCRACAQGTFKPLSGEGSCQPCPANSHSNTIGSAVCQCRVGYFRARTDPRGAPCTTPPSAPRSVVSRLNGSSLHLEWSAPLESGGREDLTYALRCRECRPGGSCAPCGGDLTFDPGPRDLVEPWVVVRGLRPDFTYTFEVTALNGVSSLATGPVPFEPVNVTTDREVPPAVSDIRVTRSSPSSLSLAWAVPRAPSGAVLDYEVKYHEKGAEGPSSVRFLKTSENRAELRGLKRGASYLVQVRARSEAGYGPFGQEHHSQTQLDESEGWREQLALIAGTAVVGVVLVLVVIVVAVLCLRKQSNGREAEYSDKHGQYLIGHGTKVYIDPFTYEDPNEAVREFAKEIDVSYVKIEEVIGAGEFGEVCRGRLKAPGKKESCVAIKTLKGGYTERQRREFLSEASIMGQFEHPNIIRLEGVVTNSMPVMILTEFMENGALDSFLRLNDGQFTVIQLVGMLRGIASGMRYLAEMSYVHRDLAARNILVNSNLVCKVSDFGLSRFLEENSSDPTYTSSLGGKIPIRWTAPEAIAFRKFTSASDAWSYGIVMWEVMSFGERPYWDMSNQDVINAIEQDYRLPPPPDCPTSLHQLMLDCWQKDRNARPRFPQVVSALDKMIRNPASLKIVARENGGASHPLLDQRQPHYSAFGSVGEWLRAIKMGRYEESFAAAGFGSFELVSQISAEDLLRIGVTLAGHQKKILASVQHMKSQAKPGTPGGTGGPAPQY
As for the experimental part:
as §1

Test [3] concerns the target protein kinases of the Z-LYTE panel (Homo sapiens, UniProt Q96GD4). As for the experimental part: as §1
For test [4], the target named is protein kinases of the Z-LYTE panel (Homo sapiens, UniProt P15056). As to conditions: BRAF, 1000 nM, [ATP] 100 μM. As for the experimental part: as §1
Chain of protein kinases of the Z-LYTE panel (Homo sapiens, UniProt P15056) (P15056 whole entry): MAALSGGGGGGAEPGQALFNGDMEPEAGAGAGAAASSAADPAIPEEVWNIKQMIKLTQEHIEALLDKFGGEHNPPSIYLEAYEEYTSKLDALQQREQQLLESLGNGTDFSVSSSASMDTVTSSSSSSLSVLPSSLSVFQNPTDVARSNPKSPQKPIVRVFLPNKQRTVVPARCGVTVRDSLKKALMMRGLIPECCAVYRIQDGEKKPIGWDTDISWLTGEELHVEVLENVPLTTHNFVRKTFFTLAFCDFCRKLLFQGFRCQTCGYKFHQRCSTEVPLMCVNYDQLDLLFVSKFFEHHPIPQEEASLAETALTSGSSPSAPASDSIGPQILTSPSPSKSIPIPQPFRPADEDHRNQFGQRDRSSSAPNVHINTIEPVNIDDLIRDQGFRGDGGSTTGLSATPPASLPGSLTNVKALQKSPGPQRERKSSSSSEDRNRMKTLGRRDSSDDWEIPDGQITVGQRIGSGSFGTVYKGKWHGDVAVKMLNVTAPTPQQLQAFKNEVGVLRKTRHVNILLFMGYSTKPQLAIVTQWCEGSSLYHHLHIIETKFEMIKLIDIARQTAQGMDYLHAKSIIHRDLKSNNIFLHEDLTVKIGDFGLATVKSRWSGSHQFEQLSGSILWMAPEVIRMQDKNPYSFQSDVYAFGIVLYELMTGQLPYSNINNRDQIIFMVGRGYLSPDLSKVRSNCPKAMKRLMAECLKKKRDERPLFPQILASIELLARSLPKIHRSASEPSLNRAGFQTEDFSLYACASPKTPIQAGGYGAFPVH

Read-outs that look alike come from different tables or passages of the source.

Chain of protein kinases of the Z-LYTE panel (Homo sapiens, UniProt P08581) (P08581 25-1390): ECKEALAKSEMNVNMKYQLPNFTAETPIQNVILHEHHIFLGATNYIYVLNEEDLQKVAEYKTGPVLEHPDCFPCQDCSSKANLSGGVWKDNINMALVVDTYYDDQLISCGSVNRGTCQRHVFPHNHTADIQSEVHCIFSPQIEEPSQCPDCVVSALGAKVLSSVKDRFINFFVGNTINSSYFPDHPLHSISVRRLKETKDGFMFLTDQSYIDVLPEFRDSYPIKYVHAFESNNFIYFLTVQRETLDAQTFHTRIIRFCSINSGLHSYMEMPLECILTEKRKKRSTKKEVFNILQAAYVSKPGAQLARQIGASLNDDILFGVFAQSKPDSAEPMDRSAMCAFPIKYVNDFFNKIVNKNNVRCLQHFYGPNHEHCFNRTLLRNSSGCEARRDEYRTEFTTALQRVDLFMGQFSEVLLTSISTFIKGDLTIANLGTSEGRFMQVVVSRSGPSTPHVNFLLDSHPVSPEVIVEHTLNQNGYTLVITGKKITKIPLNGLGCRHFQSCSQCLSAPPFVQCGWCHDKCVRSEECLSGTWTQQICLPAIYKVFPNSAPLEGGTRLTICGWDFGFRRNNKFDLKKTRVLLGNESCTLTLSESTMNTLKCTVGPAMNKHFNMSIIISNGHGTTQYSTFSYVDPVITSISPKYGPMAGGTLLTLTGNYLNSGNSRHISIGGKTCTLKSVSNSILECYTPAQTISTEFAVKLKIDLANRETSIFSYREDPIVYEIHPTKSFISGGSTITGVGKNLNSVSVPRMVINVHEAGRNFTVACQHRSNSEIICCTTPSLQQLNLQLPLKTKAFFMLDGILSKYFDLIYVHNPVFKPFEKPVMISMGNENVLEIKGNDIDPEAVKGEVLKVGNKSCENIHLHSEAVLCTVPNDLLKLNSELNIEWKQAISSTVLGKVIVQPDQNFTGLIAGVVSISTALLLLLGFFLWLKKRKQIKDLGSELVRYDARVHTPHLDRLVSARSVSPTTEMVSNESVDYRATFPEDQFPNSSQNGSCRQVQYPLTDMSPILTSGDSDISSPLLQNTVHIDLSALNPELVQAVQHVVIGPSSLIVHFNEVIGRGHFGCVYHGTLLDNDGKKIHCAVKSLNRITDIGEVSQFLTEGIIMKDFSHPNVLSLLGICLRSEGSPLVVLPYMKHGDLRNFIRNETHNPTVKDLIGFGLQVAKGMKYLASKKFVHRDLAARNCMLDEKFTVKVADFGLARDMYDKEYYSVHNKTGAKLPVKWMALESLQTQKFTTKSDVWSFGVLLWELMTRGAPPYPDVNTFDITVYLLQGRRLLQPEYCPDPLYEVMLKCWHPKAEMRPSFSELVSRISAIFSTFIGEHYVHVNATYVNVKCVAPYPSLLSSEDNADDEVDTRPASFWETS
Chain of protein kinases of the Z-LYTE panel (Homo sapiens, UniProt Q96GD4) (Q96GD4 whole entry): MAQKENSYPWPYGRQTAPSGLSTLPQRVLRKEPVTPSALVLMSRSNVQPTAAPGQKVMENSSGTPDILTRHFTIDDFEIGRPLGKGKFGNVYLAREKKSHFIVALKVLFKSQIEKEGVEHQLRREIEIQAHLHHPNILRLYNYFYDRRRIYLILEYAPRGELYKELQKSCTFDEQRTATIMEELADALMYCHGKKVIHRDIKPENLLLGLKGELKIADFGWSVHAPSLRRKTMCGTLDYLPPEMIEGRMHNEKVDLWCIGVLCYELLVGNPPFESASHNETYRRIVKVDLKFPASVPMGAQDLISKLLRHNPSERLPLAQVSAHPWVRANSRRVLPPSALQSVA

For the molecule `CCN1CCN(c2ccc(Nc3cc(Nc4cccc5c4N(C(C)=O)CC5)ccn3)cc2)CC1` [Compound 1938], the inhibition (usually the drop in the measured response relative to a control, in per cent) at 1 µM in test [1] (read-out: % Inhibition Point 1) is 8%; in test [1] (read-out: % Inhibition Point 2), 29%; in test [1] (read-out: % Inhibition mean), 19%; in test [2] (read-out: % Inhibition Point 1) it was 10%; in test [2] (read-out: % Inhibition Point 2) it was -1.75%; in test [2] (read-out: % Inhibition mean), 4%. Also, the inhibition at 1 µM in test [3] (read-out: % Inhibition Point 1) was found to be 30%; in test [3] (read-out: % Inhibition Point 2) it was 29%; in test [3] (read-out: % Inhibition mean) it was 30%; in test [4] (read-out: % Inhibition Point 1), 13%; in test [4] (read-out: % Inhibition Point 2), 12%; in test [4] (read-out: % Inhibition mean) it was 13%.
